# From patent publication US20150289513A1, “USE OF A COMPOUND COMPRISING A POLYFLUOROBENZYL MOIETY AGAINST INSECTICIDE-RESISTANT PESTS” (priority 2012, published 2015)
# Columns and labels:
# [1] = tested on: Anopheles gambiae (target-site-resistant strain: VK7); experiment: Glazed tile contact test, knock-down; assay type: in vivo
# Protocol: (§1) To produce a suitable preparation Transfluthrin was dissolved in acetone. The active compound solution was pipetted onto a glazed tile and, after drying, adult mosquitoes of the species: • Anopheles gambiae (target-site-resistant and metabolic-resistant strain: RSPH), • Anopheles gambiae (target-site-resitant and metabolic-resistant strain: Tiassalé), • Anopheles gambiae (tar et-site-resitant and metabolic-resistant strain: Akron), • Anopheles gambiae (target-site-resistant strain: VK7), and • Anopheles funestus (metabolic-resistant strain FUMOZ-R) were placed onto the treated tile (each strain was tested on separate tiles). The exposition time was 30 minutes.
# (§2) 0.25 hours, 0.5 hours, 1 hour, 2 hour, 3 hour, 4 hour and 24 hours after contact to the treated surface, the knock-down proportion of the test animals in % was determined. Here, 100% (effect) means that all mosquitoes have been killed; 0% (effect) means that none of the mosquitoes have been killed.
# [2] = tested on: Anopheles funestus (metabolic-resistant strain FUMOZ-R); experiment: Glazed tile contact test, knock-down; assay type: in vivo
# Protocol: as §1, §2
# Similarly as outlined in example 2 for Transfluthrin, Metofluthrin efficacy was assessed against • Anopheles gambiae (target-site-resistant and metabolic-resistant strain: RSPH), • Anopheles funestus (metabolic-resistant strain FUMOZ-R), and • Culex quinquefasciatus (metabolic-resistant to DDT; strain P00), with the results shown in Tables 10 to 12. 0.25 hours, 0.5 hours, 1 hour, 2 hour, 3 hour, 4 hour and 24 hours after contact to the treated surface, the knock-down proportion of the test animals in % is depicted in Tables 10 to 12. 100% (effect) means that all mosquitoes have been killed; 0% (effect) means that none of the mosquitoes have been killed.
# Similarly as outlined in example 2 for Transfluthrin, Metofluthrin efficacy was assessed against • Anopheles gambiae (target-site-resistant and metabolic-resistant strain: RSPH), • Anopheles funestus (metabolic-resistant strain FUMOZ-R), and with the results shown in Tables […]. 0.25 hours, 0.5 hours, 1 hour, 2 hour and 3 hours after contact to the treated surface, the knock-down proportion of the test animals in % is depicted in Tables 13 to 14. 100% (effect) means that all mosquitoes have been killed; 0% (effect) means that none of the mosquitoes have been killed.
smiles,measurement,setting,value
"CC1(C)[C@H](C=C(Cl)Cl)[C@H]1C(=O)OCc1c(F)c(F)cc(F)c1F [Transfluthrin, (1R,3S)-3-(2,2-Dichlorovinyl)-2,2-dimethyl-1-cyclopropanecarboxylic acid (2,3,5,6-tetrafluorophenyl)methyl ester]",Effect %,"[1]; 1.6 g/ha, 0.5 h after contact",90%
same,Effect %,"[1]; 1.6 g/ha, 1 h after contact",85%
same,Effect %,"[1]; 1.6 g/ha, 2 h after contact",80%
same,Effect %,"[1]; 1.6 g/ha, 3 h after contact",65%
same,Effect %,"[1]; 1.6 g/ha, 4 h after contact",85%
same,Effect %,"[1]; 1.6 g/ha, 24 h after contact",65%
same,Effect %,"[1]; 8 g/ha, 0.25 h after contact",100%
same,Effect %,"[1]; 8 g/ha, 0.5 h after contact",100%
same,Effect %,"[1]; 8 g/ha, 1 h after contact",100%
same,Effect %,"[1]; 8 g/ha, 2 h after contact",100%
same,Effect %,"[1]; 8 g/ha, 3 h after contact",100%
same,Effect %,"[1]; 8 g/ha, 4 h after contact",100%
same,Effect %,"[1]; 8 g/ha, 24 h after contact",100%
same,Effect %,"[1]; 40 g/ha, 0.25 h after contact",100%
same,Effect %,"[1]; 40 g/ha, 0.5 h after contact",100%
same,Effect %,"[1]; 40 g/ha, 1 h after contact",100%
same,Effect %,"[1]; 40 g/ha, 2 h after contact",100%
same,Effect %,"[1]; 40 g/ha, 3 h after contact",100%
same,Effect %,"[1]; 40 g/ha, 4 h after contact",100%
same,Effect %,"[1]; 40 g/ha, 24 h after contact",100%
same,Effect %,"[1]; 200 g/ha, 0.25 h after contact",100%
same,Effect %,"[1]; 200 g/ha, 0.5 h after contact",100%
same,Effect %,"[1]; 200 g/ha, 1 h after contact",100%
same,Effect %,"[1]; 200 g/ha, 2 h after contact",100%
same,Effect %,"[1]; 200 g/ha, 3 h after contact",100%
same,Effect %,"[1]; 200 g/ha, 4 h after contact",100%
same,Effect %,"[1]; 200 g/ha, 24 h after contact",100%
same,Effect %,"[2]; 0.32 g/ha, 0.25 h after contact",95%
same,Effect %,"[2]; 0.32 g/ha, 0.5 h after contact",100%
same,Effect %,"[2]; 0.32 g/ha, 1 h after contact",100%
same,Effect %,"[2]; 0.32 g/ha, 2 h after contact",60%
same,Effect %,"[2]; 0.32 g/ha, 3 h after contact",40%
same,Effect %,"[2]; 0.32 g/ha, 4 h after contact",40%
same,Effect %,"[2]; 1.6 g/ha, 0.25 h after contact",100%
same,Effect %,"[2]; 1.6 g/ha, 0.5 h after contact",100%
same,Effect %,"[2]; 1.6 g/ha, 1 h after contact",100%
same,Effect %,"[2]; 1.6 g/ha, 2 h after contact",100%
same,Effect %,"[2]; 1.6 g/ha, 3 h after contact",95%
same,Effect %,"[2]; 1.6 g/ha, 4 h after contact",100%
same,Effect %,"[2]; 8 g/ha, 0.25 h after contact",100%
same,Effect %,"[2]; 8 g/ha, 0.5 h after contact",100%
same,Effect %,"[2]; 8 g/ha, 1 h after contact",100%
same,Effect %,"[2]; 8 g/ha, 2 h after contact",100%
same,Effect %,"[2]; 8 g/ha, 3 h after contact",100%
same,Effect %,"[2]; 8 g/ha, 4 h after contact",100%
same,Effect %,"[2]; 40 g/ha, 0.25 h after contact",100%
same,Effect %,"[2]; 40 g/ha, 0.5 h after contact",100%
same,Effect %,"[2]; 40 g/ha, 1 h after contact",100%
same,Effect %,"[2]; 40 g/ha, 2 h after contact",100%
same,Effect %,"[2]; 40 g/ha, 3 h after contact",100%
same,Effect %,"[2]; 40 g/ha, 4 h after contact",100%
same,Effect %,"[2]; 200 g/ha, 0.25 h after contact",100%
same,Effect %,"[2]; 200 g/ha, 0.5 h after contact",100%
same,Effect %,"[2]; 200 g/ha, 1 h after contact",100%
same,Effect %,"[2]; 200 g/ha, 2 h after contact",100%
same,Effect %,"[2]; 200 g/ha, 3 h after contact",100%
same,Effect %,"[2]; 200 g/ha, 4 h after contact",100%
